Assay results reported in US20180148418A1, “AMIDO-SUBSTITUTED CYCLOHEXANE DERIVATIVES” (Bayer Pharma Aktiengesellschaft, priority 2015, published 2018).

Key:
[1] = target: T1, TNKS1 (Homo sapiens, UniProt O95271); assay: TNKS1 Assay B (auto-parsylation, [3H]-NAD+ SPA); format: biochemical; settings: 6 nM TNKS1, auto-parsylation, over night at room temperature
T1 construct: purchased BPS Bioscience, San Diego, USA 80579 (TNKS1 Histone Ribosylation Assay Kit)
T1 sequence (O95271 1-1327): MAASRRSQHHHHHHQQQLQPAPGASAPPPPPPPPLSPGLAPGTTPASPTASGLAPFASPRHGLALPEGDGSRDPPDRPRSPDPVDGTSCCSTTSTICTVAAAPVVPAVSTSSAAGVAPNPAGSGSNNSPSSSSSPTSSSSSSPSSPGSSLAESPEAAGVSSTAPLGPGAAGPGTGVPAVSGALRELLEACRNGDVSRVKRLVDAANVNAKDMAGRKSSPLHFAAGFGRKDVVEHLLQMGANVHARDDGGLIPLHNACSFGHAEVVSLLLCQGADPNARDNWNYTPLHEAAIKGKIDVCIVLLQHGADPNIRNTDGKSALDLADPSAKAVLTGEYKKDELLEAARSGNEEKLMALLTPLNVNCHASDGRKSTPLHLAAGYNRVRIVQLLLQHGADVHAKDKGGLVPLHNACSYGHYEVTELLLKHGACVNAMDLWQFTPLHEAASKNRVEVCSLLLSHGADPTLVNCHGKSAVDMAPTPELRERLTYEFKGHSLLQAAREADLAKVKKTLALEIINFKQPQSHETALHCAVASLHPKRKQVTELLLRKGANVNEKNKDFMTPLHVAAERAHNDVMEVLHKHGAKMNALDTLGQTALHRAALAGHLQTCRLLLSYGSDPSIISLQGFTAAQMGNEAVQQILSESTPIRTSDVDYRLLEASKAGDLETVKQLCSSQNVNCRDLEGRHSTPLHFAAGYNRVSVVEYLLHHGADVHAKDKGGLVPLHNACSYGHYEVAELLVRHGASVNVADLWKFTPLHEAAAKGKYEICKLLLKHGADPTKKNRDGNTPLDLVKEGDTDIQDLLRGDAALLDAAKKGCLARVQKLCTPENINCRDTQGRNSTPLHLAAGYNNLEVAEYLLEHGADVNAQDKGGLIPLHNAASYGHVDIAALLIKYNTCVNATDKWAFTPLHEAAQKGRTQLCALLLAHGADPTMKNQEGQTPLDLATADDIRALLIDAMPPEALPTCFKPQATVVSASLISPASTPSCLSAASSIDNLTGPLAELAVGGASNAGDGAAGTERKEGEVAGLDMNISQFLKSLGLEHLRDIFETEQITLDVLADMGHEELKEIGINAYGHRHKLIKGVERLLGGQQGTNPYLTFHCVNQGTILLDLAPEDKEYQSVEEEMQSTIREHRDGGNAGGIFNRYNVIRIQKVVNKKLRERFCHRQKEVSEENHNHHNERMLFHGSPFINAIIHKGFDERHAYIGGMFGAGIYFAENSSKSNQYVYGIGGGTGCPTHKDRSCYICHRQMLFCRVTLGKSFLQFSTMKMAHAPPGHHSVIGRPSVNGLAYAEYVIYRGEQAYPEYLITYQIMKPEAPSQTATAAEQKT
Procedure: The potency of selected compounds according to the invention was assessed applying a modified in vitro inhibition assay. Here, the TNKS1 catalyzed NAD^+-dependent ribosylation of the enzyme itself (auto-parsylation) was detected using [^3H]-NAD^+ as substrate and applying the scintillation proximity assay (SPA) method to detect tritium-labeled, parsylated TNKS1. The intensity of the readout signal is proportional to the incorporated [^3H]-NAD^+. Inhibition of TNKS1 leads to a decreased incorporation of [^3H]-NAD^+ and consequently to a lower readout signal intensity. The concentration of a test compound which inhibits the enzyme activity by 50% (corresponds to half of the normed readout signal intensity) is reported as IC50.
Protocol Auto-Parsylation Assay
The assay was conducted in a 96 well MTP format with the identical TNKS1 enzyme sample and NAD^+ sample as in the histone ribosylation assay with the following modifications: TNKS1 enzyme sample was diluted with a modified assay buffer (50 mM MES pH 7.0, 1 mM DTT, 0.01% Triton X-100) to a final concentration of 6 nM TNKS1 and 10×NAD^+ solution was diluted with the modified assay buffer (s. above) to a final 0.445×NAD^+ solution doped with 100 Bq/μl [^3H]-NAD^+[Catalog #NET443H050UC, Perkin Elmer, Waltham, Mass., USA]. Substrate solution (10 μl) was incubated with different test compound concentrations (2.5 ul in 10% DMSO in modified assay buffer) or control (2.5 ul 10% DMSO in modified assay buffer only) and enzyme (10 μl) over night at room temperature. Incorporated tritium was measured after addition of 50 μl SPA beads (1 mg/ml) [Catalog #RPNQ0095 20 mg/ml, Perkin Elmer, Waltham, Mass., USA; diluted 1:10 with Dulbecco's phosphate buffered saline, PBS Catalog #D8537, Sigma-Aldrich, Steinheim, Germany] and detection of the photon emission with a beta count plate reader [Wallac MicroBeta®, Perkin Elmer, Waltham, Mass., USA].

[2] = test system: wildtype Wnt signaling cascade; assay: HEK293 TOP assay (Super TopFlash luciferase reporter, Wnt-3a stimulated); format: cell-based; settings: Homo sapiens, HEK293, 16 h, HEK293 TOP reporter cells, Wnt3a at EC50, 16 hours
Procedure, shortened: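 HEK293 cells stably carrying Super TopFlash (TOP) run in parallel with FOP cells, 10000/well plated 24 h ahead, stimulated with recombinant human Wnt-3a. Compounds tested 50 μM to 15 nM in 3.16-fold steps in CAFTY buffer pH 7.4 with 2 mM Ca^2+ and 0.01% BSA; luciferase read-out.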

[3] = test system: HEK293 cells cotransfected with the FOP control vector; assay: HEK293 FOP assay (control reporter with non-functional TCF elements); format: cell-based; settings: Homo sapiens, 16 hours
Procedure, shortened: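 Stable HEK293 line carrying FOP control reporter (randomized non-functional TCF sites, with pcDNA3), Geneticin-selected, plated 24 h before assay. Stimulated with recombinant human Wnt-3a (2500-5 ng/ml) and compounds 50 μM–15 nM (3.16-fold steps) in CAFTY buffer pH 7.4 with 2 mM Ca2+, 0.01% BSA, run parallel to TOP line.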

IC50 [1]: > 10 µM
IC50 [2]: 3.2 µM
SMILES: O=C(N[C@H]1CC[C@H](C(=O)Nc2cc(N3CCOCC3)ccc2Cl)CC1)c1[nH]cnc1C(=O)N1CC(F)(F)C1 [Example 92, N-(trans-4-{[2-chloro-5-(morpholin-4-yl)phenyl]carbamoyl}cyclohexyl)-4-[(3,3-difluoroazetidin-1-yl)carbonyl]-1H-imidazole-5-carboxamide]
IC50 [3]: 21 µM
